From ChEMBL document CHEMBL3885861, “Open TG-GATES”

Organism: Rattus norvegicus
Experiment: Open TG-GATES - Regimen: Daily Repeat
Format: toxicity, organism-based, Sprague-Dawley
Set-up: regimen Daily Repeat, gender Male, age 6 weeks
Conditions: in vivo, po, 0 mg/kg, route gavage, dose level Control; for APTT / Bas / Eos / Fbg / Hb / Ht / Lym / MCH / MCHC / MCV / Mono / Neu / PT / Plat / RBC / Ret / WBC: tissue Blood; for KIDNEY_L / KIDNEY_R / KIDNEY_TOTAL: tissue Kidney; for LIVER: tissue Liver; for A/G / ALP / ALT / AST / BUN / CRE / Ca / Cl / DBIL / GLC / IP / K / LDH / Na / PL / RALB / TBIL / TC / TG / TP / gamma-GTP: tissue Plasma

CCOC(=O)[C@H](CCc1ccccc1)N[C@@H](C)C(=O)N1CCC[C@H]1C(=O)O
TERMINAL_BW (72 h, time 3 day): 253.2 g
APTT (72 h, time 3 day): 16 s
Bas (72 h, time 3 day): 0%
Eos (72 h, time 3 day): 1%
Fbg (72 h, time 3 day): 242 mg/dL
Hb (72 h, time 3 day): 13.2 g/dL
Ht (72 h, time 3 day): 40.1%
Lym (72 h, time 3 day): 73.6%
MCH (72 h, time 3 day): 21 pg
MCHC (72 h, time 3 day): 32.9%
MCV (72 h, time 3 day): 63.9 fL
Mono (72 h, time 3 day): 7.8%
Neu (72 h, time 3 day): 17.4%
PT (72 h, time 3 day): 11.8 s
Plat (72 h, time 3 day): 123.1 x10_4/uL
RBC (72 h, time 3 day): 627.6 x10_4/ul
Ret (72 h, time 3 day): 6.6%
WBC (72 h, time 3 day): 111.6 x10_2/uL
KIDNEY_L (72 h, time 3 day): 1.1 g
KIDNEY_R (72 h, time 3 day): 1.1 g
KIDNEY_TOTAL (72 h, time 3 day): 2.2 g
LIVER (72 h, time 3 day): 12.4 g
A/G (72 h, time 3 day): 1.8
ALP (72 h, time 3 day): 993.8 IU/L
ALT (72 h, time 3 day): 38.6 IU/L
AST (72 h, time 3 day): 63.4 IU/L
BUN (72 h, time 3 day): 19 mg/dL
CRE (72 h, time 3 day): 0.5 mg/dL
Ca (72 h, time 3 day): 11 mg/dL
Cl (72 h, time 3 day): 105 meq/L
DBIL (72 h, time 3 day): 0.022 mg/dL
GLC (72 h, time 3 day): 209.8 mg/dL
IP (72 h, time 3 day): 9 mg/dL
K (72 h, time 3 day): 4.7 meq/L
LDH (72 h, time 3 day): 82.2 IU/L
Na (72 h, time 3 day): 141.4 meq/L
PL (72 h, time 3 day): 149.6 mg/dL
RALB (72 h, time 3 day): 3.8 g/dL
TBIL (72 h, time 3 day): 0.4 mg/dL
TC (72 h, time 3 day): 81 mg/dL
TG (72 h, time 3 day): 114.6 mg/dL
TP (72 h, time 3 day): 5.9 g/dL
gamma-GTP (72 h, time 3 day): 1.2 IU/L
TERMINAL_BW ([…], time 7 day): 279.2 g
TERMINAL_BW ([…], time 14 day): 338.3 g
TERMINAL_BW ([…], time 28 day): 401.8 g
APTT ([…], time 7 day): 16.4 s
Bas ([…], time 7 day): 0%
Eos ([…], time 7 day): 1.2%
Fbg ([…], time 7 day): 227.8 mg/dL
Hb ([…], time 7 day): 13.9 g/dL
Ht ([…], time 7 day): 41.9%
Lym ([…], time 7 day): 78.8%
MCH ([…], time 7 day): 21.4 pg
MCHC ([…], time 7 day): 33.3%
MCV ([…], time 7 day): 64.6 fL
Mono ([…], time 7 day): 6%
Neu ([…], time 7 day): 14%
PT ([…], time 7 day): 11.6 s
Plat ([…], time 7 day): 121.8 x10_4/uL
RBC ([…], time 7 day): 649.6 x10_4/ul
Ret ([…], time 7 day): 6.5%
WBC ([…], time 7 day): 122 x10_2/uL
APTT ([…], time 14 day): 16.5 s
Bas ([…], time 14 day): 0%
Eos ([…], time 14 day): 1%
Fbg ([…], time 14 day): 232.8 mg/dL
Hb ([…], time 14 day): 13.9 g/dL
Ht ([…], time 14 day): 41.7%
Lym ([…], time 14 day): 79.2%
MCH ([…], time 14 day): 20.6 pg
MCHC ([…], time 14 day): 33.3%
MCV ([…], time 14 day): 61.8 fL
Mono ([…], time 14 day): 5.8%
Neu ([…], time 14 day): 13.4%
PT ([…], time 14 day): 11.4 s
Plat ([…], time 14 day): 115 x10_4/uL
RBC ([…], time 14 day): 675.8 x10_4/ul
Ret ([…], time 14 day): 4.1%
WBC ([…], time 14 day): 143.8 x10_2/uL
APTT ([…], time 28 day): 17.7 s
Bas ([…], time 28 day): 0%
Eos ([…], time 28 day): 1.2%
Fbg ([…], time 28 day): 249 mg/dL
Hb ([…], time 28 day): 15.3 g/dL
Ht ([…], time 28 day): 46.4%
Lym ([…], time 28 day): 80%
MCH ([…], time 28 day): 19.3 pg
MCHC ([…], time 28 day): 33%
MCV ([…], time 28 day): 58.3 fL
Mono ([…], time 28 day): 6%
Neu ([…], time 28 day): 12.6%
PT ([…], time 28 day): 11.6 s
Plat ([…], time 28 day): 107.8 x10_4/uL
RBC ([…], time 28 day): 797.4 x10_4/ul
Ret ([…], time 28 day): 3.1%
WBC ([…], time 28 day): 125.5 x10_2/uL
KIDNEY_L ([…], time 7 day): 1.2 g
KIDNEY_R ([…], time 7 day): 1.2 g
KIDNEY_TOTAL ([…], time 7 day): 2.4 g
KIDNEY_L ([…], time 14 day): 1.3 g
KIDNEY_R ([…], time 14 day): 1.3 g
KIDNEY_TOTAL ([…], time 14 day): 2.6 g
KIDNEY_L ([…], time 28 day): 1.4 g
KIDNEY_R ([…], time 28 day): 1.4 g
KIDNEY_TOTAL ([…], time 28 day): 2.8 g
LIVER ([…], time 7 day): 14 g
LIVER ([…], time 14 day): 15.8 g
LIVER ([…], time 28 day): 16.1 g
A/G ([…], time 7 day): 2.1
ALP ([…], time 7 day): 778.4 IU/L
ALT ([…], time 7 day): 37.8 IU/L
AST ([…], time 7 day): 62 IU/L
BUN ([…], time 7 day): 18.2 mg/dL
CRE ([…], time 7 day): 0.5 mg/dL
Ca ([…], time 7 day): 10.7 mg/dL
Cl ([…], time 7 day): 106 meq/L
DBIL ([…], time 7 day): 0.002 mg/dL
GLC ([…], time 7 day): 207 mg/dL
IP ([…], time 7 day): 8.6 mg/dL
K ([…], time 7 day): 5 meq/L
LDH ([…], time 7 day): 89.2 IU/L
Na ([…], time 7 day): 140.2 meq/L
PL ([…], time 7 day): 157.4 mg/dL
RALB ([…], time 7 day): 4 g/dL
TBIL ([…], time 7 day): 0.4 mg/dL
TC ([…], time 7 day): 78.2 mg/dL
TG ([…], time 7 day): 130.2 mg/dL
TP ([…], time 7 day): 5.9 g/dL
gamma-GTP ([…], time 7 day): 1.6 IU/L
A/G ([…], time 14 day): 1.6
ALP ([…], time 14 day): 684 IU/L
ALT ([…], time 14 day): 31 IU/L
AST ([…], time 14 day): 58.2 IU/L
BUN ([…], time 14 day): 19.6 mg/dL
CRE ([…], time 14 day): 0.6 mg/dL
Ca ([…], time 14 day): 10.9 mg/dL
Cl ([…], time 14 day): 106.4 meq/L
DBIL ([…], time 14 day): 0 mg/dL
GLC ([…], time 14 day): 209.6 mg/dL
IP ([…], time 14 day): 8 mg/dL
K ([…], time 14 day): 4.4 meq/L
LDH ([…], time 14 day): 105.2 IU/L
Na ([…], time 14 day): 140 meq/L
PL ([…], time 14 day): 162.2 mg/dL
RALB ([…], time 14 day): 3.9 g/dL
TBIL ([…], time 14 day): 0.3 mg/dL
TC ([…], time 14 day): 77 mg/dL
TG ([…], time 14 day): 172 mg/dL
TP ([…], time 14 day): 6.2 g/dL
gamma-GTP ([…], time 14 day): 1.4 IU/L
A/G ([…], time 28 day): 1.9
ALP ([…], time 28 day): 643.2 IU/L
ALT ([…], time 28 day): 29.2 IU/L
AST ([…], time 28 day): 54.2 IU/L
BUN ([…], time 28 day): 19.2 mg/dL
CRE ([…], time 28 day): 0.7 mg/dL
Ca ([…], time 28 day): 10.7 mg/dL
Cl ([…], time 28 day): 107.2 meq/L
DBIL ([…], time 28 day): 0.036 mg/dL
GLC ([…], time 28 day): 202.6 mg/dL
IP ([…], time 28 day): 7 mg/dL
K ([…], time 28 day): 4.5 meq/L
LDH ([…], time 28 day): 61 IU/L
Na ([…], time 28 day): 140.2 meq/L
PL ([…], time 28 day): 145 mg/dL
RALB ([…], time 28 day): 4 g/dL
TBIL ([…], time 28 day): 0.3 mg/dL
TC ([…], time 28 day): 66.4 mg/dL
TG ([…], time 28 day): 128.2 mg/dL
TP ([…], time 28 day): 6.2 g/dL
gamma-GTP ([…], time 28 day): 1.4 IU/L
